What was measured:
[1] = target: Opiate κ (OP2, KOP) (Homo sapiens, UniProt P41145); assay: Lead Profiling Screen – Eurofins Panlabs; type: binding; conditions: read-out: % inh at 10 μM
[2] = target: T1, Bradykinin B1 (Homo sapiens, UniProt P46663); assay: Lead Profiling Screen – Eurofins Panlabs; type: binding; conditions: read-out: % inh at 10 μM
T1 construct: Eurofins Panlabs (contract screen)

[3] = target: Serotonin (5-Hydroxytryptamine) 5-HT2B (Homo sapiens, UniProt P41595); assay: Lead Profiling Screen – Eurofins Panlabs; type: binding; conditions: read-out: % inh at 10 μM
[4] = test system: Sodium Channel, Site 2; assay: Lead Profiling Screen – Eurofins Panlabs; type: binding, rat
[5] = Binding in plasma from rat (equilibrium dialysis); type: in vitro ADME; conditions: fraction unbound, equilibrium dialysis, read-out: rat fu,plasma
Description: Binding in plasma from rat and human.
Determination of compounds’ fraction unbound (f u) in plasma from rat and human was conducted in vitro via equilibrium dialysis using HTDialysis membrane plates. Dialysis membranes (four paired strips per HTD assay) were hydrated as described by the manufacturer and inserted into the HTD plate, which was assembled and prepared for sample addition by the dispensing of blank buffer (DPBS, 100 µL/well) into the ‘top half’ of each membrane-split well. Each compound was diluted into plasma from each species (5 µM final concentration), which was aliquoted in triplicate to the ‘bottom half’ of the prepared HTD plate wells. The HTD plate was sealed and incubated for 6 hours at 37 °C. Following incubation, each well (both top and bottom halves) were transferred (20 µL) to the corresponding wells of a 96-shallow-well (V-bottom) plate. The daughter plates were then matrix-matched (buffer side wells received equal volume of plasma, and plasma side wells received equal volume of buffer), and extraction solution (120 µL; acetonitrile containing 50 nM carbamazepine as IS) was added to all wells of both daughter plates to precipitate protein and extract test article. The plates were then sealed and centrifuged (3500 rcf) for 10 minutes at ambient temperature. Supernatant (60 µL) from each well of the daughter plates was then transferred to the corresponding wells of new daughter plates (96-shallow-well, V bottom) containing water (Milli-Q, 60 µL/well), and the plates were sealed in preparation for LC-MS/MS analysis (see below). fu was calculated as (analyte to IS MS peak area ratio from Trans-buffer side) / (analyte to IS MS peak area ratio from Cis-plasma side). Mean values for each species were calculated from 3 replicates.

[6] = target: T2, Estrogen ERα (Homo sapiens, UniProt P03372); assay: Lead Profiling Screen – Eurofins Panlabs; type: binding; conditions: read-out: % inh at 10 μM
T2 construct: Eurofins Panlabs (contract screen)

[7] = target: T3, Bradykinin B2 (Homo sapiens, UniProt P30411); assay: Lead Profiling Screen – Eurofins Panlabs; type: binding; conditions: read-out: % inh at 10 μM
T3 construct: Eurofins Panlabs (contract screen)

[8] = test system: GABAA, Flunitrazepam, Central; assay: Lead Profiling Screen – Eurofins Panlabs; type: binding, rat
[9] = target: Nicotinic Acetylcholine α1, Bungarotoxin (Homo sapiens, UniProt P02708+P07510+Q07001); assay: Lead Profiling Screen – Eurofins Panlabs; type: binding; conditions: read-out: % inh at 10 μM
[10] = target: T4, Adrenergic α1A (Rattus norvegicus, UniProt P43140); assay: Lead Profiling Screen – Eurofins Panlabs; type: binding; conditions: read-out: % inh at 10 μM
T4 construct: Eurofins Panlabs

[11] = target: Histamine H1 (Homo sapiens, UniProt P35367); assay: Lead Profiling Screen – Eurofins Panlabs; type: binding; conditions: read-out: % inh at 10 μM
[12] = target: Tachykinin NK1 (Homo sapiens, UniProt P25103); assay: Lead Profiling Screen – Eurofins Panlabs; type: binding; conditions: read-out: % inh at 10 μM
[13] = Binding in brain homogenate from rat (equilibrium dialysis); type: in vitro ADME

T3 sequence (P30411 whole entry): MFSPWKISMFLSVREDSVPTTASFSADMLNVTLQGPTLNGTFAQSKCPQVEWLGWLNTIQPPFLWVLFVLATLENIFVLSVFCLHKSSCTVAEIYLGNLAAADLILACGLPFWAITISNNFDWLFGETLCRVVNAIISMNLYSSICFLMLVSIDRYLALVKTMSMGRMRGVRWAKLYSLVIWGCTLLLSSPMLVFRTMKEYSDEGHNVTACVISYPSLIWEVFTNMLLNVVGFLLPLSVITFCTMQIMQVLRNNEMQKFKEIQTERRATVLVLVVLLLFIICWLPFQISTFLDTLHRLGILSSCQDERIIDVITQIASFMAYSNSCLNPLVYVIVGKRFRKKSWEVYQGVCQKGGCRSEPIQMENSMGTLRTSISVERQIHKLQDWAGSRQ
Chain of Tachykinin NK1 (P25103 whole entry): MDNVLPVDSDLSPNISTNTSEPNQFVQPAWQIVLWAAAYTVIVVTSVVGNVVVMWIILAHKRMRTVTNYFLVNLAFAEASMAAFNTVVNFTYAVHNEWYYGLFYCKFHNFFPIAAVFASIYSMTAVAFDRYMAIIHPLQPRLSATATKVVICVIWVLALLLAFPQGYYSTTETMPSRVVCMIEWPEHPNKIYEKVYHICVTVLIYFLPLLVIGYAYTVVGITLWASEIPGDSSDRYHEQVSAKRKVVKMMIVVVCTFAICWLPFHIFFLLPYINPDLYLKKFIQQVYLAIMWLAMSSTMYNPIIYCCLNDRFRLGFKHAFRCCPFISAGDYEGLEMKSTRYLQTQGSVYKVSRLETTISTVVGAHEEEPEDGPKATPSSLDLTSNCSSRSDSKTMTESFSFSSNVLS
Chain of Opiate κ (OP2, KOP) (P41145 whole entry): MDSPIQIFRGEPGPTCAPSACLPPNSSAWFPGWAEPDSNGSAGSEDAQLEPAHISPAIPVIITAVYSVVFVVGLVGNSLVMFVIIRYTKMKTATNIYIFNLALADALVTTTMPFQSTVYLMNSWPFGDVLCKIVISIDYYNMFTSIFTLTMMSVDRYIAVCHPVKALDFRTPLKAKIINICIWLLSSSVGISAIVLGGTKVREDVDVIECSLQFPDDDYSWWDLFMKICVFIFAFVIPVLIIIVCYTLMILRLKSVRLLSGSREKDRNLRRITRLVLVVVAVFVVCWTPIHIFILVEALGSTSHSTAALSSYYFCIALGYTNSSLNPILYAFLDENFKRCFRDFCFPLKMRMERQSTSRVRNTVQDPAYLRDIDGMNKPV
Chain of Nicotinic Acetylcholine α1, Bungarotoxin (P02708 21-457): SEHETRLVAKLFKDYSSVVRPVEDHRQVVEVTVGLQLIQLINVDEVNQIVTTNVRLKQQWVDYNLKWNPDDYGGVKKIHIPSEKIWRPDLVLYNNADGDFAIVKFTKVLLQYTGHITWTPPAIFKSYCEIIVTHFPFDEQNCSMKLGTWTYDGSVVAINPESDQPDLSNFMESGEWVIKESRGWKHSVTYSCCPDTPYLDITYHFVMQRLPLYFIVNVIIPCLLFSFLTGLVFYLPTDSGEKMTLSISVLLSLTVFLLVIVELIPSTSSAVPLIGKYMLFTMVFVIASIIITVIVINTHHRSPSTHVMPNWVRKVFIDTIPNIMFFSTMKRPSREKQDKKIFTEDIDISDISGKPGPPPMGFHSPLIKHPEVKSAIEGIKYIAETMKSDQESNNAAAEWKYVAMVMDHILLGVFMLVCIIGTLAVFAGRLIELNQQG
Chain of Nicotinic Acetylcholine α1, Bungarotoxin (Q07001 22-517): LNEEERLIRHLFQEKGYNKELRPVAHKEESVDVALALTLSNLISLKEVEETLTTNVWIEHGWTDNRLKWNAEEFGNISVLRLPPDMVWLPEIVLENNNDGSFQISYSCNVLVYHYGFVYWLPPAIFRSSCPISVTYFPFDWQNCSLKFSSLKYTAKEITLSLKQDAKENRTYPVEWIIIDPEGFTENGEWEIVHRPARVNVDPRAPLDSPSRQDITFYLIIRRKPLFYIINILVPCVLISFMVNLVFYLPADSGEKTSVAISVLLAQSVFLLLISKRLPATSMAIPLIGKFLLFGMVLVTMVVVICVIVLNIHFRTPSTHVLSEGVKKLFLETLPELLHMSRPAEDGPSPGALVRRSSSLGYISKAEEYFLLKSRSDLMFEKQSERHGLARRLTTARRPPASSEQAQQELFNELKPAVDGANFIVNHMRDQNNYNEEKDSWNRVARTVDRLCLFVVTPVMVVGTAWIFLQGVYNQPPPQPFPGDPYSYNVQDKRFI
Chain of Nicotinic Acetylcholine α1, Bungarotoxin (P07510 23-517): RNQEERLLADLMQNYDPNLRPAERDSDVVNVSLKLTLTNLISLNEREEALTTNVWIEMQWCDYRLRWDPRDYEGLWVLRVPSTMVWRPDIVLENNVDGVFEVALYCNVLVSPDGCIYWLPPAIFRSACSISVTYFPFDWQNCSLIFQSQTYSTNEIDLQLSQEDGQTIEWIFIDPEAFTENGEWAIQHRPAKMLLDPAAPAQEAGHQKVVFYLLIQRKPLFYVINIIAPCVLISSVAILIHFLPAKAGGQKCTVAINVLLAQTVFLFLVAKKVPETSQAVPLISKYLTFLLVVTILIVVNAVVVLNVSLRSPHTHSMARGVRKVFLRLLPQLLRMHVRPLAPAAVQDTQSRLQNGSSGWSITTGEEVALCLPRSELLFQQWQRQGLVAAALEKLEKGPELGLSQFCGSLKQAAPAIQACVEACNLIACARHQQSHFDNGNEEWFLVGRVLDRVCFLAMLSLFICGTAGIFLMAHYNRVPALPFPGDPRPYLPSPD
Chain of Nicotinic Acetylcholine α1, Bungarotoxin (P11230 24-501, further chain): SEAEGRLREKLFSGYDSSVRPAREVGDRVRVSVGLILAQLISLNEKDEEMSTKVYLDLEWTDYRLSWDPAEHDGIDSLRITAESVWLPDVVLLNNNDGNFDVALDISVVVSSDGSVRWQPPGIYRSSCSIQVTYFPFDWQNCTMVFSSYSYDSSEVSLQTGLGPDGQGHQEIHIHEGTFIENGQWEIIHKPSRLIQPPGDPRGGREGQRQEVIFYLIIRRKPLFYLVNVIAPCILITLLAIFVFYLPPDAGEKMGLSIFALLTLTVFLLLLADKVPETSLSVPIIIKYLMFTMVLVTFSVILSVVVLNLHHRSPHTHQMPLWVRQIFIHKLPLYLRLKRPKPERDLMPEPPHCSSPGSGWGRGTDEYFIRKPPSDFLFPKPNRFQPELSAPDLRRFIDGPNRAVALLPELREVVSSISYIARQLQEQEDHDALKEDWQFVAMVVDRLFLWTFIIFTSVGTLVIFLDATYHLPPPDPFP
T1 sequence (P46663 whole entry): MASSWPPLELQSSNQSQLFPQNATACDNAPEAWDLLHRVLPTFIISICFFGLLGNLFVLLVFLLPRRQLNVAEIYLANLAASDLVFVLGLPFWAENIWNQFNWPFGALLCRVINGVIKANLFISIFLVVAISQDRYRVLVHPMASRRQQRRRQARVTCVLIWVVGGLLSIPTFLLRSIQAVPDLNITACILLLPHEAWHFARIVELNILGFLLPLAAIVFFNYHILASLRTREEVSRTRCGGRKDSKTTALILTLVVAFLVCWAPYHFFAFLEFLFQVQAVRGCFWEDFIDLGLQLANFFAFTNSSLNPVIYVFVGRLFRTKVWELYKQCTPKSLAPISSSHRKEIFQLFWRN
Chain of Histamine H1 (P35367 whole entry): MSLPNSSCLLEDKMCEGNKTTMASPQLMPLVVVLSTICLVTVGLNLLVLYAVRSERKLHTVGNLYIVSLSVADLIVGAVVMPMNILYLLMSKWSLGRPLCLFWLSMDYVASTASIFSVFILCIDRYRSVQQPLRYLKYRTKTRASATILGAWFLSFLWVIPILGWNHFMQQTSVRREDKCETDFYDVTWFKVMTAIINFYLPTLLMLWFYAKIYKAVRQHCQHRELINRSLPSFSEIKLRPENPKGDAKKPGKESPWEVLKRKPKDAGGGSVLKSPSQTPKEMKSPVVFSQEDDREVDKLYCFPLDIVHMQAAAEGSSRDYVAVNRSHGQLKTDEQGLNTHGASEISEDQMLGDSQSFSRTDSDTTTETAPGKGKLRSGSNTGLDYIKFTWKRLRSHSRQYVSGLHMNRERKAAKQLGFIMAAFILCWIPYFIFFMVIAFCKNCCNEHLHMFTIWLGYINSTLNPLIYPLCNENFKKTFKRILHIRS
T2 sequence (P03372 whole entry): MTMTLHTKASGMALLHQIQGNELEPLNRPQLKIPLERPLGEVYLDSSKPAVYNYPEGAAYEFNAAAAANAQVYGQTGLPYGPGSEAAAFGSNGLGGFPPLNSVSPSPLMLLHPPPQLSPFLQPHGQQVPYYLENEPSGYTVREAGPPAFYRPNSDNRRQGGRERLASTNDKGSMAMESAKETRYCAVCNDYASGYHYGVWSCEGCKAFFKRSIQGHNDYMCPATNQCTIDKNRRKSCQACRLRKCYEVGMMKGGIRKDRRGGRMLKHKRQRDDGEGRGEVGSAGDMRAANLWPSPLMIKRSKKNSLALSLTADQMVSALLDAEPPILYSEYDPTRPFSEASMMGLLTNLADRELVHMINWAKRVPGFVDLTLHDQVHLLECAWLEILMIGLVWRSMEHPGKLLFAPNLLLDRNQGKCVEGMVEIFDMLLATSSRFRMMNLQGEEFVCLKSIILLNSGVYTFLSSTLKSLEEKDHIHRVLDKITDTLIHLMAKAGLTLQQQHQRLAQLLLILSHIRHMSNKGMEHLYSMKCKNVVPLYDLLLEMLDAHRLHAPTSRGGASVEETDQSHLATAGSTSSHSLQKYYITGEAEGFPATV

Cc1nc(C)c2c(n1)sc1c(NCc3ccc(C(C)(C)O)cc3)nccc12 [22g]
inhibition at 10 µM [1]: 4%
inhibition at 10 µM [2]: -1%
inhibition at 10 µM [3]: 16%
% inh at 10 μM [4]: 3%
fraction unbound at 6 h, 5 µM [5]: 0.024
inhibition at 10 µM [6]: -8%
inhibition at 10 µM [7]: -1%
% inh at 10 μM [8]: 13%
inhibition at 10 µM [9]: -8%
inhibition at 10 µM [10]: 3%
inhibition at 10 µM [11]: -11%
inhibition at 10 µM [12]: 8%
rat fbrain ([13]; fraction unbound, equilibrium dialysis, rat brain homogenates): 0.016
fraction unbound at 6 h, 1 µM ([13]; rat, brain homogenate, in %, read-out: fu,brain (rat brain homogenate)): 0.01 to 0.05
